In patent US9078917B2, “Extract of Phaleria macrocarpa as an antineoplastic, anti-inflammatory and antiangiogenic agent” (PT. Dexa Medica, priority 2008, dated 2015):

How the values were obtained:
Type in all cases: cell-based
cPLA2 mRNA expression = experiment: cPLA2 RT-PCR in serum-free MDA-MB-231 cells; conditions: TPA versus control, serum-free medium; FIG. 12
Experimental: (§1) MDA-MB-231 cells were cultured in supplemented medium, then the cells were incubated at 37° C., CO2 5%. MDA-MB-231 cells were cultured in 6-well plates. A day before treatment administration, medium was changed with serum-free medium for 24 hours. Treatment administration was done by administering various doses of Phaleria macrocarpa extract dissolved in organic solvent. RNA isolation was conducted using Trizol. The RNAs then were used in RT-PCR process using specific primer for each gene we used. RT-PCR reactions were performed in PCR machines with optimized conditions. RT-PCR products were analyzed using electrophoresis technique on agarose gel 2%, and quantified using Chemidoc.

COX-1 mRNA expression = experiment: COX-1 RT-PCR in serum-free MDA-MB-231 cells; conditions: TPA alone versus control; FIG. 11
Experimental: as §1

VEGF-C mRNA expression = experiment: VEGF-C RT-PCR in serum-free MDA-MB-231 cells; conditions: TPA versus control, serum-free medium; FIG. 13
Experimental: as §1

For `CCCCCCCCCCCCCC(=O)O[C@@H]1[C@@H](C)[C@@]2(O)[C@@H](C=C(CO)C[C@]3(O)C(=O)C(C)=C[C@@H]23)[C@@H]2C(C)(C)[C@]12OC(C)=O` [TPA], the “cPLA2 mRNA expression” value (cPLA2 mRNA expression) was “increase in cPLA2 mRNA expression significantly”, the “mRNA expression of COX-1” value (COX-1 mRNA expression) was “did not show any significant differences compared to control” and the “VEGF-C gene in mRNA level” value (VEGF-C mRNA expression) was “significant increase of VEGF-C gene”.
